From patent US20210338717A1, “NANOPARTICLE DELIVERY TO A TARGET TISSUE” (THE GOVERNING COUNCIL OF THE UNIVERSITY OF TORONTO, priority 2020, published 2021)

Tested on: 4T1 tumour-bearing BALB/c mice
Details: mouse, in vivo
Experimental: 6 week old female BALB/c mice were purchased (Charles River Laboratory BALB/cAnNCrl). 4T1 cells were a generous gift from Dr. Reginald Gorczynski. 4T1 tumours were induced as described^3 into 7-week old mice. Briefly, 1 million 4T1 cells between passages 3-20 in 100 μL of serum-free, antibiotic-free RPMI (Wisent Bioproducts 350-000-EL) were injected into the right inguinal 5th mammary fat pad using a 25G needle. The needle was inserted 1 mm lateral and 3 mm caudal to the nipple, and advanced towards the nipple by 2 mm. Mice were injected with nanoparticles 2 weeks post-induction unless specified otherwise. We aimed to investigate smaller tumours to minimize confounding by the necrotic core and maximize quantification accuracy. Tumour growth was homogeneous (average 14-day tumour size and standard deviation: 0.38±0.15 g). Tumours were size-matched between treatment groups to enable %ID and %ID/g comparisons between groups.
Mice were euthanized by isoflurane overdose followed by cervical dislocation at 2, 8, 24, or 72 hours post nanoparticle injection. Mouse organs were collected and weighed into borosilicate tubes for analysis by ICPMS^5,6. Collected organs included: heart, lungs, liver, spleen, stomach (with diet), large intestines (with diet), small intestines (with diet), kidneys, uterus, dorsal skin, and cardiac blood. For endpoint cardiac blood, mice hearts were quickly exposed by dissecting through the thoracic cavity. A 25G needle/1 mL syringe was inserted into the right ventricle of the beating heart. ˜600 μL cardiac blood was drawn then transferred to a glass tube. For reference, a control tube containing a known proportion of the injected dose was also prepared in a borosilicate tube. 800 μL of 16 M nitric acid (Caledon 7525-1-29) was added to each sample. They were digested at 80° C. in a water bath for 1 hour, and then digested overnight at 50° C. The next morning, 200 μL of 12 M hydrochloric acid (Caledon 6025-1-29) was added and the samples were digested at 80° C. for ≥1 hour. Samples were collected into polypropylene 50 mL centrifuge tubes (Biomart 110708) and then diluted to 40 mL in deionized water for a final acid concentration of 2.5% (v/v). 10 mL of these samples were then filtered through a 0.22 μm PES filter (Fisher Scientific SLGP033RS) into 15 mL centrifuge tubes (Sarstedt 62.554.002). A standard curve for elemental gold and magnesium were prepared by dilution in 2% (v/v) nitric acid and 0.5% (v/v) hydrochloric acid, with concentrations ranging from 0.0001 to 100 mg/mL, with a reference blank of 0. All samples were then quantified using a NexION 350x ICP-MS (PerkinElmer) with mass analyzer set to magnesium Mg 24, iridium Ir 192, and gold Au 197. A 500 μL injection loop was used, and each sample was mixed with carrier solution (2% (v/v) nitric acid) and iridium internal standard (1 μg/mL) before injection into the analyzer. Percent injected dose was the measured gold mass of each sample divided by the measured gold mass of the injected dose.

## gold nanoparticles
  increase in absolute accumulation in the liver: 6000 times
  increase in absolute nanoparticle accumulation in tumour: 7,300,000 times
  liver accumulation: 16 % injected dose/gram
  liver accumulation, large single dose vs same dose divided: reduced
  tumour accumulation: 16 % injected dose/gram
  tumour delivery, large single dose vs same dose divided: increased
